Like-named read-outs stand apart in the source and are kept apart here.
Columns and labels:
primary rat microglia [1] = test: Cell toxicity (dead cells, size <150 μm2) in coated fibrin (cFib) assay;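 for Fibrin % cell toxicity: share of dead cells sized under 150 µm2 at 10 µM in fibrin-stimulated microglia HTS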
[2] = test system: fibrin-induced microglia activation; test: Image-based assay of fibrin-induced microglia activation (HTS and dose response); assay type: cell-based, rat; conditions: for inhibition at 10 µM: Rattus norvegicus, Microglia, read-out: Fibrin % inhibition
[3] = test system: fibrin- and LPS-induced microglia activation; test: cells; assay type: cell-based, rat
[4] = test system: LPS-induced microglia activation; test: Image-based assay of LPS-induced microglia activation (HTS and dose response); assay type: cell-based, rat; conditions: for inhibition at 10 µM: Rattus norvegicus, Microglia, read-out: LPS % inhibition
primary rat microglia [5] = test: Cell toxicity (dead cells, size <150 μm2) in LPS assay
[6] = primary microglia HTS, fibrin stimulation, decreased size (<150 μm^2) as marker of toxicity
[7] = primary microglia HTS, fibrin stimulation, increased cell size (>800 μm^2) as marker of activation
[8] = HTS of 1907 compounds, quadrant by fibrin and LPS inhibition
[9] = quadrant by fibrin and LPS inhibition in HTS of 1907 compounds
[10] = primary microglia HTS, LPS stimulation, decreased size (<150 μm^2) as marker of toxicity
[11] = 48 h, primary microglia HTS, LPS stimulation, increased cell size (>800 μm^2) as marker of activation
[12] = primary microglia HTS, fibrin stimulation, toxicity = cell size <150 μm2
[13] = primary microglia HTS, fibrin stimulation, activation = cell size >800 μm2
[14] = 48 h, primary microglia HTS, LPS stimulation, activation = cell size >800 μm2
[15] = primary microglia HTS, LPS stimulation, toxicity = cell size <150 μm2
[16] = primary microglia HTS, 10 μM, fibrin assay, cell size <150 μm^2 as marker of toxicity
[17] = primary microglia HTS, 10 μM, fibrin-stimulated, cell size >800 μm^2 as marker of activation
[18] = primary microglia HTS, 10 μM, LPS-stimulated, cell size >800 μm^2 as marker of activation
[19] = primary microglia HTS, 10 μM, LPS assay, cell size <150 μm^2 as marker of toxicity
[20] = primary HTS, 10 μM, fibrin assay, dead cells size <150 μm2
[21] = primary HTS, 10 μM, fibrin-stimulated primary microglia
[22] = primary HTS, 10 μM, LPS-stimulated primary microglia
[23] = primary HTS, 10 μM, LPS assay, dead cells size <150 μm2

Row | Compound | Fibrin % cell toxicity (primary rat microglia [1]; [6]) | Quadrant (FIG. 5b) [3, 9] | LPS % cell toxicity (primary rat microglia [5]; [10]) | Fibrin % cell toxicity (primary rat microglia [1]; [20]) | inhibition at 10 µM [2, 21] | Quadrant (FIG. 5b) ([3]; primary HTS, 10 μM) | inhibition at 10 µM [4, 22] | LPS % cell toxicity (primary rat microglia [5]; [23]) | also measured
1 | Colistimethate sodium [reference compound] | 1% | Q2 | 4% | – | – | – | – | – | IC50 (primary rat microglia [1]; read-out: Cell Toxicity IC50 (uM) [cFib assay], cFib assay): > 20 µM; IC50 ([2]; Table 1, dose response 0.001-20 μM, triplicates, primary rat microglia, 48 h, read-out: Fibrin IC50): > 20 µM; IC50 ([2]; dose response, fibrin-induced microglia activation, read-out: Fibrin IC50): > 20 µM; IC50 ([2]; fibrin-induced microglia activation, dose response, read-out: Fibrin IC50 (uM) (Suppl. Table 7)): > 20 µM; Fibrin % inhibition [2, 7]: 72%; Hit ([3]; HTS hit classification): HIT (Hits were defined as molecules that exhibited greater than 50% inhibition of either fibrin or LPS activation); Quadrant (FIG. 5b) [3, 8]: Q2; Quadrant (FIG. 5b) ([3]; Table 1, screen at 10 μM): Q2; Cherry-picked Hit (Suppl. Table 7) ([3]; hit classification in microglia HTS): HIT (Hits were defined as molecules that exhibited greater than 50% inhibition of either fibrin or LPS activation); IC50 ([4]; LPS-induced microglia activation, dose response, read-out: LPS IC50 (uM) (Suppl. Table 7)): > 20 µM; IC50 ([4]; Table 1, dose response 0.001-20 μM, triplicates, primary rat microglia, 48 h, read-out: LPS IC50): > 20 µM; IC50 ([4]; dose response, LPS-induced microglia activation, read-out: LPS IC50): > 20 µM; LPS % inhibition ([4]; primary microglia HTS, LPS stimulation, increased cell size (>800 μm^2) as marker of activation): 112%; IC50 (primary rat microglia [5]; read-out: Cell Toxicity IC50 (uM) [LPS assay], LPS assay): > 20 µM
2 | CC(=O)OCC(=O)[C@@]1(O)CC[C@H]2[C@@H]3CCC4=CC(=O)C=C[C@]4(C)[C@@]3(F)[C@@H](O)C[C@@]21C [Isoflupredone Acetate] | 3% | Q2 | 2% | – | – | – | – | – | inhibition at 10 µM [2, 7]: 106%; inhibition at 10 µM [4, 11]: 90%
3 | CC(C)Oc1ccc2c(=O)c(-c3ccccc3)coc2c1 [Ipriflavone] | – | Q4 | – | – | – | – | – | – | Fibrin % cell toxicity (primary rat microglia [1]; [12]): 1%; inhibition at 10 µM [2, 13]: -29%; inhibition at 10 µM [4, 14]: 7%; LPS % cell toxicity (primary rat microglia [5]; [15]): 0%
4 | Cc1cn([C@H]2C=C[C@@H](CO)O2)c(=O)[nH]c1=O [Stavudine] | – | – | – | – | – | – | – | – | Fibrin % cell toxicity (primary rat microglia [1]; [16]): 1%; inhibition at 10 µM [2, 17]: -17%; Quadrant (FIG. 5b) [3, 8]: Q4; inhibition at 10 µM [4, 18]: 19%; LPS % cell toxicity (primary rat microglia [5]; [19]): 0%
5 | Cc1ccc2c(Br)cc(Br)c(OC(=O)c3ccccc3)c2n1 [Broxaldine] | – | – | – | 1% | 19% | Q4 | 6% | 0% | –
6 | CC[N+](CC)(CC)CCOc1cccc(OCC[N+](CC)(CC)CC)c1OCC[N+](CC)(CC)CC [Gallamine Triethiodide] | – | Q4 | – | – | – | – | – | – | Fibrin % cell toxicity (primary rat microglia [1]; [12]): 1%; inhibition at 10 µM [2, 13]: -11%; inhibition at 10 µM [4, 14]: 24%; LPS % cell toxicity (primary rat microglia [5]; [15]): 1%
7 | Cc1cccc(C)c1NC(=O)CN1CCCC1=O [Nefiracetam] | 0% | Q4 | 0% | – | – | – | – | – | inhibition at 10 µM [2, 7]: -21%; inhibition at 10 µM [4, 11]: 13%
8 | Cc1ccc(C(=O)Nc2ccc(S(=O)(=O)O)c3cc(S(=O)(=O)O)cc(S(=O)(=O)O)c23)cc1NC(=O)c1cccc(NC(=O)Nc2cccc(C(=O)Nc3cc(C(=O)Nc4ccc(S(=O)(=O)O)c5cc(S(=O)(=O)O)cc(S(=O)(=O)O)c45)ccc3C)c2)c1 [Suramin] | – | – | – | – | – | – | – | – | Fibrin % cell toxicity (primary rat microglia [1]; [16]): 0%; inhibition at 10 µM [2, 17]: -5%; Quadrant (FIG. 5b) [3, 8]: Q4; inhibition at 10 µM [4, 18]: 18%; LPS % cell toxicity (primary rat microglia [5]; [19]): 0%
9 | C=C[C@@]1(C)CC(=O)[C@]2(O)[C@@]3(C)[C@@H](O)CCC(C)(C)[C@@H]3[C@H](O)[C@H](OC(C)=O)[C@@]2(C)O1 [Colforsin] | – | – | – | 1% | 46% | Q4 | 26% | 0% | –
10 | CCNC(=O)/C=C/c1cccc(Br)c1 [Cinromide] | – | – | – | 1% | -10% | Q4 | 13% | 0% | –
11 | CCOC(=O)C1=C[C@@H](OC(CC)CC)[C@H](NC(C)=O)[C@@H](N)C1 [Oseltamivir] | 1% | Q4 | 1% | – | – | – | – | – | Fibrin % inhibition [2, 7]: −28%; inhibition at 10 µM [4, 11]: 26%
12 | CC(C)(C)NCC(O)COc1cccc2c1CCC(=O)N2 (stereo not shown) [Carteolol] | – | – | – | 0% | 12% | Q4 | 7% | 0% | –
13 | CCCCCCCCCCCCCCCCOP(=O)([O-])OCC[N+](C)(C)C [Miltefosine] | 1% | Q4 | 0% | – | – | – | – | – | inhibition at 10 µM [2, 7]: -31%; inhibition at 10 µM [4, 11]: 11%
14 | CCCCCCCCCCCCCCCC(=O)OC[C@@H](NC(=O)C(Cl)Cl)[C@H](O)c1ccc([N+](=O)[O-])cc1 [Chloramphenicol Palmitate] | – | – | – | 1% | 15% | Q4 | 9% | 1% | –
